Data on 1 molecule can be found in patent US20130338183A1, “COMPOSITIONS AND METHODS FOR MOBILIZING STEM CELLS” (The Johns Hopkins University, priority 2010, published 2013).

The test has as its system Lin-CD133+ cells in peripheral blood. The experiment in a line: Mobilization of bone marrow stem cells: Lin-CD133+ cells in peripheral blood by CBC and flow cytometry after subcutaneous injection. It is filed as in vivo. The settings on record: low dose FK-506 (0.05 mg/kg, 0.1 mg/kg) subcutaneous, 3 hours after injection, Lewis rats. The source says: Rat Strains and Care. Lewis (RT1^1) rats were purchased from Harlan ague-Dawley (Indianapolis, Ind.) and used at 8-10 weeks of age. Animals were maintained in the specific pathogen-free facility of Johns Hopkins Medical Institutions. Animals were cared for according to NIH guidelines and under a protocol approved by the Johns Hopkins University Animal Care Committee.
Experimental Groups and Animal Treatment. Lewis rats were divided by six groups including control group (treated with same volume of saline) and low dose of FK-506 (0.05 mg, 0.1 mg or 1.0 mg/kg). FK506 was injected subcutaneously. Animals were sacrificed at 3 hours after injection. Spleen and peripheral blood were collected. Blood cell count was performed in animal pathology laboratory at Johns Hopkins.
Flow Cytometry. Single-cell suspensions (5×10^5) of peripheral blood monocytes were analyzed for lineage negative and CD133 expression. Nonspecific antibody binding was blocked with goat and rat serum (Sigma) for 30 minutes.
In this study, lineage negative (Lin−) CD133+ stem cell population in peripheral blood and spleen were quantified after FK-506 treatment. Complete blood count (CBC) was measured and stem cell markers were quantified by flow cytometry. The absolute number of stem cells was calculated as WBC (−thous./uL)×% of stem cells.
In general terms: Flow cytometry measures light scatter and fluorescence of single cells or particles in a stream.

`C=CC[C@@H]1/C=C(\C)C[C@H](C)C[C@H](OC)[C@H]2O[C@@](O)(C(=O)C(=O)N3CCCC[C@H]3C(=O)O[C@H](/C(C)=C/[C@@H]3CC[C@@H](O)[C@H](OC)C3)[C@H](C)[C@@H](O)CC1=O)[C@H](C)C[C@@H]2OC` [FK-506, Tacrolimus]: the “increase of absolute number of Lin-CD133+ cells in peripheral blood compared to saline treated animals” value is “about 3 times”.
